# Assay results from publication PMC11879280, “Antimicrobial activity of peptoids against Metallo-β-lactamase-producing Klebsiella pneumoniae, Acinetobacter baumannii, Pseudomonas aeruginosa, and other WHO priority pathogens, including Candida auris” (Journal of Applied Microbiology, 2025).
# Like-named read-outs stand apart in the source and are kept apart here. Square brackets hold non-standard residues; d marks the D form. Peptide text beside a SMILES is read from it. Nspe = C[C@H](NCC(=O)O)c1ccccc1; NDecylGly = CCCCCCCCCCNCC(=O)O; Nlys = NCCCCNCC(=O)O
# What was measured:
# [1] = system: MBL phenotypes of A. baumannii; settings: MBL phenotypes of
# Description: Briefly, bacteria were suspended in cation-adjusted Mueller–Hinton broth (CAMHB; Oxoid, UK) for antibiotics, or MHB (Oxoid, UK) for peptidomimetics to obtain 5 × 10^5 colony forming unit (CFU) ml^−1. […] Positive controls contained only microbes, and blanks contained only media. Microbial suspensions (100 µl) were added to wells, plates wrapped, and incubated at 37°C, 120 rpm for 16–20 h. […] Geometric mean MIC of the peptoids were calculated to evaluate the broad overview of antimicrobial activity across the pathogens.
# [2] = system: C. auris strains
# Description: Briefly, bacteria were suspended in cation-adjusted Mueller–Hinton broth (CAMHB; Oxoid, UK) for antibiotics, or MHB (Oxoid, UK) for peptidomimetics to obtain 5 × 10^5 colony forming unit (CFU) ml^−1. […] Positive controls contained only microbes, and blanks contained only media. Microbial suspensions (100 µl) were added to wells, plates wrapped, and incubated at 37°C, 120 rpm for 16–20 h. After incubation, suspensions were removed, log10 diluted, and plated on Trypticase Soya Agar with phosphatidylcholine and Tween 80 to determine minimum bactericidal or fungicidal concentration (MBC or MFC). […] Geometric mean MIC of the peptoids were calculated to evaluate the broad overview of antimicrobial activity across the pathogens.
# The therapeutic indices (TIs) of the compounds were calculated with the use of following formula: […]
# [3] = system: C. auris CBS10913; assay: Membrane integrity by flow cytometry (SYTO 9 / PI); format: cell-based, Candida auris
# Description: Afterwards, the cells were stained with SYTO 9 (7.5 µmol l^−1) and PI (30 µmol l^−1) for an additional 15 min in the dark at room temperature. Following washing, samples were then analysed for membrane integrity on a BD FACSymphony^TM A3, with a minimum of 10 000 events recorded per sample.
# [4] = system: C. auris CBS 10913; assay: microbe, parasite or virus in culture; format: cell-based, Candida auris; settings: CBS 10913, 48 h
# Description: Amphotericin B was tested in parallel as a positive control (Ramesh et al. [2023]).
# [5] = system: E. coli 0010
# In short: (§1)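 Growth inhibition was scored after 16–20 h shaking incubation (37°C, 120 rpm) of 5 × 10^5 CFU ml^−1 suspensions in Mueller–Hinton broth, cation-adjusted when antibiotics were tested.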
# [6] = system: P. aeruginosa 33
# In short: as §1
# [7] = system: K. pneumoniae JIE2709
# In short: as §1
# [8] = system: En. cloacae 003
# In short: as §1
# [9] = system: E. coli 0015
# In short: as §1
# [10] = system: A. baumannii 007
# In short: as §1
# [11] = system: A. baumannii 008
# In short: as §1
# [12] = system: P. aeruginosa 216
# In short: as §1
# [13] = system: E. coli 005
# In short: as §1
# [14] = system: S. aureus 04
# In short: as §1
# [15] = system: C. auris CBS12373 biofilm; format: cell-based, Candida auris
# Description: Another set of experiments was conducted under similar conditions similar to those used for MTT assay.
# [16] = system: K. pneumoniae JIE2709; assay: Checkerboard microdilution synergy test; format: cell-based, Klebsiella pneumoniae
# Description: (§2) Then, 10 µl of bacteria (5 × 10^6 CFU ml^−1) or C. auris (2.5 × 10^4 CFU ml^−1) were added to each well, except for the sterility control well. […] The sterility control wells contained only MHB (or RPMI in case of C. auris), and the growth control contained 110 µl of microbial inoculum with no antimicrobials. Subsequently, the plates were incubated for 18- 24 hours at 36 ± 1 °C.
# (§3) The FIC for each combination interaction was calculated as follows:
# (§4) Then, the summation of FIC (ƩFIC) was calculated for each antimicrobial combination as follows: ƩFIC = FICA + FICB. […] All antimicrobial synergy experiments were repeated in at least two independent runs.
# [17] = system: K. pneumoniae JIE2713; assay: Checkerboard microdilution synergy test; format: cell-based, Klebsiella pneumoniae
# Description: as §2, §3, §4
smiles,measurement,setting,value
CCCCCCCCCCNCC(=O)N(CCCCN)CC(=O)N(CC(=O)N(CC(=O)N(CCCCN)CC(=O)N(CC(=O)N(CC(N)=O)[C@@H](C)c1ccccc1)[C@@H](C)c1ccccc1)[C@@H](C)c1ccccc1)[C@@H](C)c1ccccc1 [TM8] (H-[NDecylGly][Nlys][Nspe][Nspe][Nlys][Nspe][Nspe]-NH2),MIC,[1],≤ 7.8 µg/mL
same,MIC against both C. auris strains,[2]; strains,< 10 µg/mL
same,Geometric mean MICCA,[2]; two C. auris strains,5.5 µg/mL
same,Dead cells,"[3]; TM8 at its MIC or 1% Triton X-100, 90 min, PBS control 0.2%",3.9%
same,SYTO 9 fluorescent signal of C. auris,"[3]; TM8 at its MIC, 90 min, 37°C, PBS, PBS control 51.7%",25.5%
same,Cells doubly stained with SYTO 9 and PI,"[3]; TM8 at its MIC, 90 min, PBS control 0.7%",21.5%
same,MIC in the absence of ergosterol,[4],7.8 µg/mL
same,MIC in the presence of exogenous ergosterol,[4],31.25 µg/mL
same,MIC of peptidomimetics,[5]; 0010,14.0 µM
same,MIC of peptidomimetics,"[5]; E. coli 0010, MHB (melimine/Mel4 with 0.2% BSA, 0.01% acetic acid), mean MIC",15.6 µg/mL
same,MIC of peptidomimetics,[6]; 33,3.5 µM
same,MIC of peptidomimetics,"[6]; P. aeruginosa 33, MHB (melimine/Mel4 with 0.2% BSA, 0.01% acetic acid), mean MIC",3.9 µg/mL
same,MIC of peptidomimetics,[7]; JIE2709,14.0 µM
same,MIC of peptidomimetics,"[7]; K. pneumoniae JIE2709, MHB (melimine/Mel4 with 0.2% BSA, 0.01% acetic acid), mean MIC",15.6 µg/mL
same,MIC of peptidomimetics,[8],7.0 µM
same,MIC of peptidomimetics,"[8]; En. cloacae 003, MHB (melimine/Mel4 with 0.2% BSA, 0.01% acetic acid), mean MIC",7.8 µg/mL
same,MIC of peptidomimetics,[9]; 0015,7.0 µM
same,MIC of peptidomimetics,"[9]; E. coli 0015, MHB (melimine/Mel4 with 0.2% BSA, 0.01% acetic acid), mean MIC",7.8 µg/mL
same,MIC of peptidomimetics,[10]; 007,3.5 µM
same,MIC of peptidomimetics,"[10]; A. baumannii 007, MHB (melimine/Mel4 with 0.2% BSA, 0.01% acetic acid), mean MIC",3.9 µg/mL
same,MIC of peptidomimetics,[11]; 008,7.0 µM
same,MIC of peptidomimetics,"[11]; A. baumannii 008, MHB (melimine/Mel4 with 0.2% BSA, 0.01% acetic acid), mean MIC",7.8 µg/mL
same,MIC of peptidomimetics,[12]; 216,7.0 µM
same,MIC of peptidomimetics,"[12]; P. aeruginosa 216, MHB (melimine/Mel4 with 0.2% BSA, 0.01% acetic acid), mean MIC",7.8 µg/mL
same,MIC of peptidomimetics,[13]; 005,7.0 µM
same,MIC of peptidomimetics,"[13]; E. coli 005, MHB (melimine/Mel4 with 0.2% BSA, 0.01% acetic acid), mean MIC",7.8 µg/mL
same,MIC of peptidomimetics,[14]; 04,3.5 µM
same,MIC of peptidomimetics,"[14]; S. aureus 004, MHB (melimine/Mel4 with 0.2% BSA, 0.01% acetic acid), mean MIC",3.9 µg/mL
same,MBEC for mature biofilm,[15],125 µg/mL
same,"MIC of TM8 (alone, checkerboard)",[16],15.625 µg/mL
same,FICTM8,[16]; TM8 with Cefotaxime,0.5
same,MF of TM8 (modulation factor),[16]; TM8 with Cefotaxime,2
same,Outcome,[16]; TM8 with Cefotaxime,Additive (Additive if 0.5<ƩFIC ≤ 1)
same,ƩFIC,[16]; TM8 with Cefotaxime,1
same,FICTM8,[16]; TM8 with Ciprofloxacin,0.5
same,MF of TM8 (modulation factor),[16]; TM8 with Ciprofloxacin,2
same,Outcome,[16]; TM8 with Ciprofloxacin,Additive (Additive if 0.5<ƩFIC ≤ 1)
same,ƩFIC,[16]; TM8 with Ciprofloxacin,1
same,FICTM8,[16]; TM8 with Meropenem,0.5
same,MF of TM8 (modulation factor),[16]; TM8 with Meropenem,2
same,ƩFIC,[16]; TM8 with Meropenem,0.625
same,"MIC of TM8 (alone, checkerboard)",[17],15.625 µg/mL
same,FICTM8,[17]; TM8 with Aztreonam,0.5
same,MF of TM8 (modulation factor),[17]; TM8 with Aztreonam,2
same,MIC of TM8 + DrugB,[17]; TM8 with Aztreonam,7.8125 µg/mL
same,ƩFIC,[17]; TM8 with Aztreonam,1
same,FICTM8,[17]; TM8 with Cefotaxime,0.5
same,MF of TM8 (modulation factor),[17]; TM8 with Cefotaxime,2
same,ƩFIC,[17]; TM8 with Cefotaxime,1
same,FICTM8,[17]; TM8 with Ciprofloxacin,0.25
same,MF of TM8 (modulation factor),[17]; TM8 with Ciprofloxacin,4
same,ƩFIC,[17]; TM8 with Ciprofloxacin,0.273
same,FICTM8,[17]; TM8 with Gentamicin,0.5
same,MF of TM8 (modulation factor),[17]; TM8 with Gentamicin,2
same,ƩFIC,[17]; TM8 with Gentamicin,1
